What was measured:
[1] = target: T1, TyrH (heme-dependent tyrosine hydroxylase) (Streptomyces sclerotialus, UniProt Z9QGI7APK5); experiment: steady-state kinetics; assay type: biochemical; settings: co-substrate H2O2
T1 sequence (Z9QGI7APK5 1-314): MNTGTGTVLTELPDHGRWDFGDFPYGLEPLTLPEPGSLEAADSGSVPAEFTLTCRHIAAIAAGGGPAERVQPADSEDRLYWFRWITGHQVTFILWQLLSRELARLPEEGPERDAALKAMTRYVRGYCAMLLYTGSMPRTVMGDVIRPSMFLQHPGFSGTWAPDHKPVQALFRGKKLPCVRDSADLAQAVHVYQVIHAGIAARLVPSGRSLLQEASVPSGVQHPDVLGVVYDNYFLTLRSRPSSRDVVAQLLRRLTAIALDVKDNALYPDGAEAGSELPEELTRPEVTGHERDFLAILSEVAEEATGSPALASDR

[2] = target: T1, TyrH (heme-dependent tyrosine hydroxylase); experiment: UV-vis titration; assay type: binding; settings: 100 mM potassium phosphate, 50 mM NaCl, pH 7.4; ferric enzyme

SMILES	KM [1]	Kd [2] [µM]
N[C@@H](Cc1ccc(O)cc1)C(=O)O [L-Tyr, L-tyrosine]	The KM values for both tyrosine and HPPA were comparable (Figure S8)	
O=C(O)CCc1ccc(O)cc1 [HPPA, 3-(4-hydroxyphenyl)propionic acid]	The KM values for both tyrosine and HPPA were comparable (Figure S8)	
O=Nc1ccccc1 [NB, nitrosobenzene]		296 ± 8

From paper PMC12928749 (ACS catalysis, 2025)
